In publication PMC9381509, “In-vivo pharmacokinetic studies of Dolutegravir loaded spray dried Chitosan nanoparticles as milk admixture for paediatrics infected with HIV” (Scientific Reports, 2022):
In brackets after ≈: the same amount, converted by molar mass. Read-outs that look alike come from different tables or passages of the source.

Experiments:
[1] = design: method as in earlier work; conditions: mice, single oral administration as suspension, plasma; ref 27 (Lee et al.); cited from earlier work
[2] = cited from earlier work
[3] = Organ biodistribution of DTG in mice (HPLC); format: in vivo; conditions: mouse, Balb-C mice
Source text: (§1) After validating the developed HPLC method, the same was utilized to quantify the drug present in the plasma and organ (lungs, liver, kidney, heart, brain, and uterus) samples collected at predetermined time points. A total of 114 animals (25–30 g) were acquired from the Central Animal Facility (CAF), SASTRA University, Thanjavur after obtaining the ethical approval from Institutional Animal Ethics Committee (IAEC). The animals were randomly divided into four groups (n = 6) for this study. All animals were housed in individual cages in a temperature-controlled facility. The surgical procedures were approved by IAEC at SASTRA University (585/SASTRA/IAEC/RPP). The experiments were performed following the guidelines issued by the Committee for the Purpose of Control and Supervision of Experiments on animals (CPCSEA), Ministry of Environment and Forest, Government of India and Animal Research: Reporting of In Vivo Experiments (ARRIVE). The 2 groups of mice were orally treated with pure DTG and DTG-loaded Chitosan NPs at the dose equivalent to 10 mg/kg[41] along with milk. The 3rd group of animals was treated with DTG at the same dose through an intravenous route to elucidate the absolute bioavailability and the 4th group of animals was reserved as untreated control for comparison. The blood and organ samples were withdrawn from all the experimental mice at 0.5 h, 3.5 h, 7 h, 14 h, 21 h, and 28 h after euthanizing the animal using CO2 inhalation. The concentration of the drug in each sample was determined by the developed HPLC method, followed by the pharmacokinetic parameters and biodistribution pattern evaluation.

[4] = In-vitro drug release in 0.1 N HCl media by dialysis bag method; format: physicochemical; conditions: 0.1 N HCl medium pH 1.2, dialysis bag, 37 °C
Procedure: The in vitro drug release study of the DTG-loaded Chitosan NPs was compared with the pure DTG in 0.1 N HCl pH 1.2 by dialysis bag method (Dialysis membrane Himedia, cut-off value—12–14 kDa). About 10 mg of pure drug and a similar dose equivalent amount of nanoparticles were taken for the drug release experiments. The test samples were mixed with 0.5 mL of the corresponding media, placed inside the dialysis bag, and immersed in 10 mL media in a vial. The temperature and magnetic stirring speed of the sample were retained at 37 °C ± 2 °C and 200 rpm, respectively throughout the 24 h study period. At every predetermined time point, the 10 mL samples were collected and immediately replaced with the fresh corresponding medium. The concentration of the drug in each sample was quantified by a UV–Visible spectrophotometer. The UV visible spectrophotometer (UV 1800, Shimadzu, Japan) was initialized with λmax of 260 nm. The absorbance of the test solution was recorded using the quartz cuvette (volume-3.5 mL, path length-1.5 cm) and the calculations were made based on the standard calibration curve by following the Beer Lamberts law. […] The drug release modelling was analysed using DD solver Software[36].

[5] = In vivo plasma pharmacokinetics in Balb-C mice (HPLC); conditions: for AUC(0-t): read-out: AUC0–24 h; for k el: read-out: Ke (converted)
Source text: The pharmaceutical grade working standards of Dolutegravir were obtained as a gift from MSN Laboratories Hyderabad, India. The standard calibration of the pure drug in the mobile phase (Water: Acetonitrile: Methanol in 20:40:40 ratio with 0.2% formic acid) and mice plasma was plotted using the developed method. The plasma samples of untreated normal Balb/c mice were obtained from the Central Animal Facility, SASTRA Deemed University (Approval ID: 585/IAEC/RPP), and the plasma samples were spiked with known concentrations (1, 2, 3, 4, 5 and 10 µg/mL) of DTG and allowed to incubate at room temperature for 15 min. The detection was carried out at 260 nm with an injection volume of 20 μL, wherein the flow rate of the mobile phase was maintained at 1.0 mL/min at the column temperature of 35 °C. Moreover, the validation of the analytical method was also performed in accordance with the procedure referred to in the International Council on Harmonization (ICH) guidelines.
as §1

blood cells = assay: Haematological analysis (complete blood cell count) of treated animals; format: in vivo; conditions: Balb-C mice; for Basophils / Eosinophil / HCT / HGB / Lymphocyte / MCH / MCHC / MCV / MPV / Monocytes / Neutrophil / PCT / PDW / PLT / RBC / RDW-CV / RDW-SD / WBC: blood 28 h after administration
Procedure: The counting was made following the method of Beckman Coulter. It measures the changes in electrical resistance produced by non-conductive particles suspended in an electrolyte. The blood sample from the test animals was collected in EDTA tubes and was further suspended through a small orifice along with an electric current. At the sensing end, the suspended particle displaces its volume of electrolyte which was measured as the voltage pulse by the Beckman Coulter. The height of the voltage pulse in proportion to the volume of the blood cell. The white blood cells were quantified based on the VCS technology, where the individual cell volume (V), conductivity (C), and laser light scatter (S) were measured and the scattergram plotted the cell based on the above measurements.

[6] = mouse, plasma, 10 mg/kg, intravenous route
[7] = mouse, plasma, oral dose equivalent to 10 mg/kg along with milk
[8] = plasma, oral dose equivalent to 10 mg/kg along with milk

## C[C@@H]1CCO[C@H]2Cn3cc(C(=O)NCc4ccc(F)cc4F)c(=O)c(O)c3C(=O)N12 [DTG, Dolutegravir]
[1]
  Cmax: 50000 ng/mL
[2]; 25 °C, no ref printed at the value
  aqueous solubility: 95 µg/mL (≈ 227 µM)
[2]; ref not given
  BCS class: BCS class II
[3]; brain, IV, 10 mg/kg, read-out: AUC of biodistribution of DTG in brain
  AUC: 2400 ± 330 ng·h/mL
[3]; brain, oral with milk, 10 mg/kg equivalent, read-out: AUC of biodistribution of DTG in brain
  AUC: 2600 ± 500 ng·h/mL
[3]; heart, IV, 10 mg/kg, read-out: AUC of biodistribution of DTG in heart
  AUC: 2000 ± 380 ng·h/mL
[3]; heart, oral with milk, 10 mg/kg equivalent, read-out: AUC of biodistribution of DTG in heart
  AUC: 2100 ± 400 ng·h/mL
[3]; kidney, IV, 10 mg/kg, read-out: AUC of biodistribution of DTG in kidney
  AUC: 3800 ± 1300 ng·h/mL
[3]; kidney, oral with milk, 10 mg/kg equivalent, read-out: AUC of biodistribution of DTG in kidney
  AUC: 2200 ± 400 ng·h/mL
[3]; liver, IV, 10 mg/kg, read-out: AUC of biodistribution of DTG in liver
  AUC: 4600 ± 1200 ng·h/mL
[3]; liver, oral with milk, 10 mg/kg equivalent, read-out: AUC of biodistribution of DTG in liver
  AUC: 7200 ± 1400 ng·h/mL
[3]; lungs, IV, 10 mg/kg, read-out: AUC of biodistribution of DTG in lungs
  AUC: 4300 ± 680 ng·h/mL
[3]; lungs, oral with milk, 10 mg/kg equivalent, read-out: AUC of biodistribution of DTG in lungs
  AUC: 2500 ± 400 ng·h/mL
[3]; uterus, IV, 10 mg/kg, read-out: AUC of biodistribution of DTG in uterus
  AUC: 5500 ± 1200 ng·h/mL
[3]; uterus, oral with milk, 10 mg/kg equivalent, read-out: AUC of biodistribution of DTG in uterus
  AUC: 1500 ± 400 ng·h/mL
[4]
  time taken to release 80% of the drug (T80): 20 h
[5]; Balb-C, mouse, plasma, iv, 10 mg/kg, plasma, 10 mg/kg, intravenous route, read-out: Cmax
  Cmax: 29300 ± 4010 ng/mL
[5]; Balb-C, mouse, plasma, po, 10 mg/kg, plasma, oral dose equivalent to 10 mg/kg along with milk, read-out: Cmax
  Cmax: 29300 ± 4010 ng/mL
[5]; [6]
  MRT: 12.07 ± 0.05 h
  Tmax: 7 h
  half-life: 10.5 ± 1.1 h
  AUC(0-t): 411000 ± 91000 ng·h/mL
  k el: 1.81e-05 s⁻¹
[5]; mouse, plasma, 10 mg/kg, intravenous route, read-out: Clearance (converted)
  clearance: 8.17 mL/min
[5]; mouse, plasma, 10 mg/kg, intravenous route, read-out: Vd
  Vd: 1.87 ± 0.81 L/kg
[5]; mouse, plasma, 10 mg/kg, oral
  AUC: 405000 ± 7000 ng·h/mL
[5]; [7]
  MRT: 10.1 ± 0.93 h
  Tmax: 7 h
  half-life: 11.7 ± 1.6 h
  AUC(0-t): 405000 ± 7000 ng·h/mL
  k el: 1.64e-05 s⁻¹
[5]; orally administered
  volume of distribution (Vd): 4.36 ± 0.78 L
[5]; plasma, 10 mg/kg, intravenous route
  Ka: 0.26 h⁻¹
[5]; [8]
  Cmax: 30150 ± 8060 ng/mL
  Ka: 0.48 h⁻¹
  Vd: 4.36 ± 0.78 L/kg
  clearance: 8 ± 5.5 mL/min
Blood cells; IV
  Basophils: 0.01 ± 0.02 10^3/µL
  Eosinophil: 0.06 ± 0.08 10^3/µL
  HCT: 55.83 ± 17.67%
  HGB: 13.70 ± 2.95 g/dL
  Lymphocyte: 12.83 ± 8.46 10^3/µL
  MCH: 16.23 ± 1.46 pg
  MCHC: 25.27 ± 3.33 g/dL
  MCV: 64.47 ± 2.75 fL
  MPV: 6.03 ± 0.15 fL
  Monocytes: 0.10 ± 0.07 10^3/µL
  Neutrophil: 5.15 ± 1.74 10^3/µL
  PCT: 0.50 ± 0.18%
  PDW: 15.23 ± 0.32
  PLT: 617.00 ± 27.89 10^3/µL
  RBC: 8.60 ± 2.47 10^6/µL
  RDW-CV: 15.37 ± 1.11%
  RDW-SD: 40.60 ± 4.25 fL
  WBC: 18.14 ± 10.24 10^3/µL
Blood cells; oral with milk
  Basophils: 0.00 10^3/µL
  Eosinophil: 0.04 ± 0.03 10^3/µL
  HCT: 63.77 ± 1.96%
  HGB: 15.10 ± 0.72 g/dL
  Lymphocyte: 12.30 ± 1.67 10^3/µL
  MCH: 15.57 ± 0.15 pg
  MCHC: 23.67 ± 0.15 g/dL
  MCV: 65.90 ± 4.10 fL
  MPV: 5.97 ± .06 fL
  Monocytes: 0.15 ± 0.06 10^3/µL
  Neutrophil: 5.32 ± 1.71 10^3/µL
  PCT: 0.52 ± 0.07%
  PDW: 15.17 ± 0.15
  PLT: 674.67 ± 42.91 10^3/µL
  RBC: 9.69 ± 0.48 10^6/µL
  RDW-CV: 15.47 ± 1.58%
  RDW-SD: 41.73 ± .90 fL
  WBC: 17.81 ± 3.38 10^3/µL
Blood cells; oral and IV administration, no statistically significant difference to control
  toxicity to the blood cells (haematology versus untreated control): non-toxic to the blood cells
